# Measurements from US9492450B2, “Inhibition of dynamin related protein 1 to promote cell death” (University of Pittsburgh—of the Commonwealth System of …, priority 2011, dated 2016).
# Legend:
# MDA-MB-231 cells [1] = test: Cisplatin cytotoxicity under Drp1 inhibition (subG1, LIVE/DEAD kit, caspase Western blot); format: cell-based, human
# Experimental: To test the effect of Drp-1 inhibition on the effectiveness of cisplatin, in a first series of experiments, MDA-MB-231 cells were transfected with control or Drp1 siRNA, and 48 hours later were then treated with 40 μM of cisplatin for a 24 hour period. The effect of different concentrations of cisplatin on the Drp1 knockdown cells is shown in FIG. 13A, where the subG1 portion in the cell cycle profile indicates cytotoxicity. In a second series of experiments, a LIVE/DEAD Viability/Cytotoxicity kit (Invitrogen) was used to evaluate the effect of inhibition of Drp1 by mdivi-1 on cisplatin cytotoxicity. In this test, the percentage of lice and dead cells are determined simultaneously with two probes, calcein AM and ethidium homodimer (EthD-1). […] EthD-1 is excluded by the intact plasma membrane of live cells but is able to enter cells with damaged membranes and undergo a 40-fold enhancement of red fluorescence upon binding to nucleic acids. […] Calcein AM and EthD-1 were added to the cell suspension at final concentrations of 0.1 μM and 8 μM, respectively, Fluorescence intensity was analyzed on a CyAn ADP Analyzer (Beckman Coulter, Brea, Calif.) and the results were analyzed using Summit software. The live-cell population that was positively stained with calcein was detected in the bottom right region and indicated with an arrow. […]
# MDA-MB-231 cells [2] = test: Chromosome and mitotic spindle morphology in mitotic cells; format: cell-based, human; conditions: 7 hours
# Experimental: The effect of Drp1 inhibition of chromosome stability was then evaluated. MDA-MB-231 cells that have been engineered to stably express a mitochondrial marker protein pAcGFP-1-mito were treated with mdivi-1 for 7 hours. Mitotic cells were selected for examining the morphology of their chromosomes and mitotic spindles. Chromosomes were visualized by DAPI, and mitotic spindles were visualized by staining cells with Alex-Fluor 555-conjugated anti-β tubulin antibody. The results are shown in FIG. 11; two representative mitotic figures are shown.
# [3] = target: T1, Dnm1, the yeast ortholog of Drp1 (Saccharomyces cerevisiae, UniProt P54861); conditions: US2005/0038051 and US2008/0287473; cited from earlier work
# T1 sequence (P54861 1-757): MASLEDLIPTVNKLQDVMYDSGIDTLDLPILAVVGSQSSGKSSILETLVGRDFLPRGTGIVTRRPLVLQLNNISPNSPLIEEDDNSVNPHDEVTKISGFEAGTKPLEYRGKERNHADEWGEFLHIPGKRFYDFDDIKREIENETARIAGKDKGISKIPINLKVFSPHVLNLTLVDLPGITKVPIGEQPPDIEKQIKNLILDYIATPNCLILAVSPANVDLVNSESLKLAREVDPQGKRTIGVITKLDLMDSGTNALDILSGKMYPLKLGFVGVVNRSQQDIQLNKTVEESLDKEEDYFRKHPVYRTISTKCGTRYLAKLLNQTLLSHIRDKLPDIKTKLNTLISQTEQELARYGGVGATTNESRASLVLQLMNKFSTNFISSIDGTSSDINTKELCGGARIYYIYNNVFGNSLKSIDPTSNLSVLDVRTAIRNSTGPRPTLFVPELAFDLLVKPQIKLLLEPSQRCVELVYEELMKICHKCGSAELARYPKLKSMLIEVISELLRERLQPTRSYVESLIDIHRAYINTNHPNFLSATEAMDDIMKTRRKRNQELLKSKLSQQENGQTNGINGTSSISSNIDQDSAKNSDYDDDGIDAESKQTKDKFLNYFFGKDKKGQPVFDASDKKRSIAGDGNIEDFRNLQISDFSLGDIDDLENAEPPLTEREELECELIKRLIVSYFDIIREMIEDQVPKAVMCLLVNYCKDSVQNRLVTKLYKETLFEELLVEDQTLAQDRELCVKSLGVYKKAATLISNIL
# Drp1 = conditions: as said in Cassidy-Stone et al., Dev Cell 14:193-204; cited from earlier work
structure (smiles),measurement,setting,value
COc1cc(-n2c(=S)[nH]c3ccccc3c2=O)c(Cl)cc1Cl [mdivi-1],"number of dead cells after cisplatin, coadministered with mdivi-1","MDA-MB-231 cells [1]; 50 μM mdivi-1, 12 hours, LIVE/DEAD kit",increased
same,"number of apoptotic cells after cisplatin, coadministered with mdivi-1",MDA-MB-231 cells [1]; caspase activation by Western Blot,increased
same,chromosome stability during mitosis,MDA-MB-231 cells [2],chromosomal instability
same,inhibition of Dnm1,[3],selective inhibitor
same,efficacy in inhibiting Drp1 relative to mdivi-1,Drp1,full efficacy
